Laboratory results as given in patent publication US9416145B2, “Compositions and methods for inhibiting activity of hypoxia-inducible transcription factor complex and its use for treatment of tumors” (priority 2012, dated 2016).

What was measured:
[1] = system: c-Met mRNA in A549 cells; experiment: qRT-PCR of c-Met mRNA in A549 cells; format: cell-based; details: 300 μM DFO
Experimental: (§1) FIG. 13 mRNA levels of three HIF1α inducible genes: VEGF, c-Met and Glut1 in A549 cells after treatment with LS72. Data from qRT-PCR experiments showing mRNA levels of three HIF1α inducible genes, VEGF, c-Met and Glut1 in A549 after treatment of the cells in a medium with 0.2% serum with LS72 (400 nM). Hypoxia was induced 300 μM by DFO. Error bars are ±s.e.m for the experiments performed in […]. Error bars are ±s.e.m. of experiments performed in triplicate. ***P<0.001, ** P<0.01, t test.
FIG. 16 mRNA levels for c-Met in A549 cell line showing dose response to LS72 at concentrations of 100 nM, 400 nM, 1600 nM. qRT-PCR was used to determine the mRNA levels of c-Met Hypoxia was induced with DFO (300 μM). Error bars are ±sem for the experiments performed in triplicate. Error bars are ±s.e.m. of experiments performed in triplicate. *** P<0.001, **P<0.01, # P<0.1, t test.
(§2) After tests with various serum levels in the media and hypoxia induction methods, the conditions that worked remarkably and consistently well for the induction of HIF1α dependent genes were to keep A549 cells in 2% serum followed by treating cells with compound or control in the media with 0.2% serum for 48 h (FIG. 13). […]

[2] = system: global transcript levels (28,869 transcripts) in MCF7 cells; experiment: Gene expression profiling with Affymetrix Human Gene ST 1.0 Arrays; format: cell-based
Source text: Since the target proteins p300 and CBP are pleiotropic multidomain coactivators, their CH1 regions contain binding sites for multiple transcription factors. One potential concern of the use of ETPs for gene regulation is specificity, because inhibiting the interaction between CBP/p300 and transcription factors other than HIF1α may result in large numbers of affected genes. To rule out nonspecific genome-wide effects of ETPs, we conducted in vitro gene expression profiling experiments with LS72 using Affymetrix Human Gene ST 1.0 Arrays containing oligonucleotide sequences representing 28,869 transcripts.^67,68
In order to interrogate cellular genome for global effects, MCF7 cells treated with LS72 at 400 nM were used. Treatment of cells with LS72 at a concentration of 400 nM affected the expression of only 178 genes at ≧2.0 fold levels (FIG. 20). By comparison, treatment with DFO alone changed levels of 329 genes ≧2.0 fold. […] In cells treated with LS72 under DFO-induced hypoxia conditions, we identified 190 genes were affected by this compound. Clustering analysis was performed to identify similarities in the expression profiles between different treatments (FIG. 19).

[3] = system: Glut1 mRNA in A549 cells; experiment: qRT-PCR of Glut1 mRNA in A549 cells; format: cell-based; details: 300 μM DFO
Experimental: as §1
FIG. 17 qRT-PCR data for Glut1mRNA in 85% confluent A549 cells treated with LS72 at three different concentrations. qRT-PCR assays were performed in order to determine the mRNA levels for Glut1 in A549 cell line treated with LS72 at concentrations: 100 nM, 400 nM, 1600 nM. Hypoxia was induced with DFO (300 μM). Error bars are ±sem for the experiments performed in triplicate. Error bars are ±s.e.m. of experiments performed in triplicate. *** P<0.001, ** P<0.01, t test.
as §2

[4] = target: T1, GST-tagged CH1 domain of human p300 (aa residues 323-423) (Homo sapiens, UniProt Q09472); experiment: SPR direct binding to immobilized GST-CH1-p300; design: direct binding to GST-CH1-p300 (in words): dose or concentration left out as unconfirmed
T1 construct: CH1 domain of human p300 (aa residues 323-423)
T1 sequence (Q09472 323-423): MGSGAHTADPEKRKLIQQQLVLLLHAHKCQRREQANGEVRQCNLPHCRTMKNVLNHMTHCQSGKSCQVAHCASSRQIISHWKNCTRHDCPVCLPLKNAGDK
Source text: Prior to undertaking more rigorous biophysical and biological characterization of dimeric ETPs LS69 and LS72, it was important to first characterize its thermodynamic binding properties toward the target, p300 CH1 domain. We conducted SPR experiments in the presence of DTT to mimic the reducing environment that would be found in the intracellular milieu. From the SPR sensorgrams it is clear that both LS69 and LS72 bind directly to the GST-tagged CH1 domain of human p300 (aa residues 323-423) with high affinity.

[5] = MTT cytotoxicity assay in A549 cells; format: cell-based; details: human, A549 cells; A549, 48 h treatment, serum free F-12K medium
Experimental: (§3) FIG. 12 MTT cytotoxicity assay data for LS72 in A549 cell line. […]
(§4) Therefore the treatment of the cells was extended to 48 h in order to better determine its cytotoxicity.

[6] = system: A549 lung adenocarcinoma cell line; experiment: MTT cytotoxicity assay in A549 cells; format: cell-based; details: Homo sapiens; A549, 24 h treatment; read-out: EC50 (viability)
Experimental: as §3, §4

[7] = A549 85% confluent, 100 nM, 400 nM, 1600 nM
[8] = A549, LS72 400 nM, 0.2% serum, 48 h
[9] = MCF7, hypoxic induction with DFO (300 μM), LS72 400 nM

SMILES: CN1C(=O)[C@]2(Cc3ccc(CCc4ccc(C[C@@]56SS[C@@](CO)(C(=O)N5C)N(C)C6=O)cc4)cc3)SS[C@@]1(CO)C(=O)N2C (racemic) [LS72, 4,4′-((ethane-1,2-diylbis(4,1-phenylene))bis(methylene))bis(1-(hydroxymethyl)-5,7-dimethyl-2,3-dithia-5,7-diazabicyclo[2.2.2]octane-6,8-dione)]
- c-Met transcriptional upregulation, dose response [1, 7]: Dose-dependent decrease
- c-Met mRNA level (in words) [1, 8]: significantly downregulated, essentially reaching its normoxic levels
- number of genes downregulated ≧2.0 fold ([2]; MCF7, LS72 400 nM): 88 genes
- number of genes upregulated by ≧2.0 fold ([2]; MCF7, LS72 400 nM): 90 genes
- number of genes with expression affected at ≧2.0 fold levels ([2]; MCF7, LS72 400 nM): 178 genes
- number of genes affected under DFO-induced hypoxia ([2]; MCF7, LS72 under DFO-induced hypoxia conditions): 190 genes
- CAV1 (Entrez 857) expression change, microarray [2, 9]: −1.3
- LOXL2 (Entrez 4017) expression change, microarray [2, 9]: −1.4
- MET (Entrez 4233) expression change, microarray [2, 9]: −2.2
- SLC5A6 (Entrez 8884) expression change, microarray [2, 9]: −2.4
- SLC5A8 (Entrez 160728) expression change, microarray [2, 9]: −1.4
- SLC7A2 (Entrez 6542) expression change, microarray [2, 9]: −2.5
- SLC9A2 (Entrez 6549) expression change, microarray [2, 9]: −1.8
- SLC9A3R1 (Entrez 9368) expression change, microarray [2, 9]: −1.6
- SLC25A12 (Entrez 8604) expression change, microarray [2, 9]: −1.8
- SLC25A15 (Entrez 10166) expression change, microarray [2, 9]: −1.5
- SLC26A2 (Entrez 1836) expression change, microarray [2, 9]: −1.4
- SLC27A4 (Entrez 10999) expression change, microarray [2, 9]: −1.4
- SLC35A1 (Entrez 10559) expression change, microarray [2, 9]: −2.2
- SLC35D1 (Entrez 23169) expression change, microarray [2, 9]: −3.1
- SLC38A9 (Entrez 153129) expression change, microarray [2, 9]: −1.5
- SLC39A11 (Entrez 201266) expression change, microarray [2, 9]: −1.9
- TFRC (Entrez 7037) expression change, microarray [2, 9]: −1.5
- TGFB3 (Entrez 7043) expression change, microarray [2, 9]: −1.5
- Glut1 hypoxic transcriptional up-regulation, dose response [3, 7]: dose dependent decrease
- reduction of Glut1 mRNA levels [3, 8]: more than 60%
- direct binding to GST-CH1-p300 (in words) [4]: bind directly
- kon ([4]; in the presence of DTT, read-out: rate of association (ka)): 4250 M⁻¹ s⁻¹
- Kd ([4]; off rate/on rate, read-out: binding constant KD): 3.62 µM
- EC50 at 48 h [5]: 2.8 µM
- EC50 [6]: > 10 µM
